In brackets after ≈: the same amount, converted by molar mass. Several values for one entry are separate records, joined by “and”; a condition that tells them apart may be missing. Equal entries are not always repeated. Values belong to the molecule of their own block, whether it stands above or below them.
Legend:
Assay in all cases: ≥ marks a high value that may be exact or a test limit, other limits are often not marked, values filed in µg/mL are converted to µM
[1] = test system: Staphylococcus epidermidis ATCC 35984
[2] = test system: Staphylococcus aureus ATCC 33591
[3] = test system: Staphylococcus aureus ATCC 25923
[4] = test system: Pseudomonas aeruginosa ATCC 27853
[5] = test system: Pseudomonas aeruginosa K799
Escherichia coli UB1005 = test system: Escherichia coli UB1005
Escherichia coli KF111 = test system: Escherichia coli KF111
[6] = test system: Pseudomonas aeruginosa H374
[7] = test system: Pseudomonas aeruginosa H744
[8] = test system: Staphylococcus epidermidis
[9] = test system: Salmonella enterica subsp. enterica serovar Typhimurium ATCC 14028s
Escherichia coli KF130 = test system: Escherichia coli KF130
[10] = test system: Aspergillus flavus KCTC 6905
[11] = test system: Aspergillus parasiticus KCTC 6598
[12] = test system: Listeria monocytogenes KCTC 3710
[13] = test system: Staphylococcus epidermidis KCTC 3096
[14] = test system: Salmonella typhimurium KCTC 1926
[15] = test system: Listeria monocytogenes ATCC 19115
[16] = test system: Aspergillus awamori KCTC 6915
[17] = test system: Pseudomonas aeruginosa KCTC 1637
[18] = test system: Aspergillus fumigatus KCTC 6145
[19] = test system: Candida albicans KCTC 7270
[20] = test system: Staphylococcus epidermidis ATCC 12228
[21] = test system: Proteus vulgaris KCTC 2433
[22] = test system: Bacillus subtilis KCTC 1998
[23] = test system: Escherichia coli ATCC 25922
[24] = test system: Trichosporon beigelii KCTC 7707
[25] = test system: Pseudomonas aeruginosa ATCC 15692
[26] = test system: Bacillus subtilis KCTC 1918
[27] = test system: Klebsiella pneumoniae 913
[28] = test system: Pseudomonas aeruginosa 4677
Escherichia coli 170 = test system: Escherichia coli 170
[29] = test system: Enterobacter cloacae 2524
Acinetobacter baumannii = test system: Acinetobacter baumannii
[30] = test system: Candida albicans ATCC 64550
[31] = test system: Micrococcus luteus ATCC 10240
[32] = test system: Salmonella enterica subsp. enterica serovar Typhimurium ATCC 14028
[33] = test system: Staphylococcus aureus ATCC 6538P
[34] = test system: Klebsiella pneumoniae ATCC 10031
[35] = test system: Staphylococcus aureus TK784
[36] = test system: Shigella dysenteriae ATCC 9752
[37] = test system: Bacillus subtilis ATCC 6633
[38] = test system: Staphylococcus aureus USA 300

- MIC [1]: 8.1 µM (≈ 16 µg/mL)
- MIC [2]: ≥ 259 µM
- MIC [3]: > 259 µM
- MIC [4]: 1.43 µM (≈ 2.83 µg/mL)
Structure (SMILES): CC[C@H](C)[C@H](NC(=O)[C@H](CCCCN)NC(=O)[C@@H](NC(=O)[C@H](Cc1ccccc1)NC(=O)[C@H](C)NC(=O)[C@H](CCCCN)NC(=O)CNC(=O)[C@H](Cc1ccccc1)NC(=O)[C@H](CCCCN)NC(=O)[C@H](CCCCN)NC(=O)[C@H](C)NC(=O)[C@H](CCCCN)NC(=O)[C@H](CCCCN)NC(=O)[C@@H](N)CC(C)C)C(C)C)C(=O)N[C@@H](CC(C)C)C(=O)N[C@@H](CCCCN)C(=O)N[C@@H](CCCCN)C(N)=O [LKKAKKFGKAFVKILKK]

- MIC [10]: ≥ 32 µM
- MIC [11]: 8 µM (≈ 15.3 µg/mL)
- MIC [12]: 2 µM (≈ 3.82 µg/mL)
- MIC [13]: 16 µM (≈ 30.6 µg/mL)
- MIC [14]: 2 µM (≈ 3.82 µg/mL)
- MIC [3]: 5.66 µM and 16 µM
- MIC [15]: 2 µM (≈ 3.82 µg/mL)
- MIC [16]: 16 µM (≈ 30.6 µg/mL)
- MIC [17]: 2 µM (≈ 3.82 µg/mL)
- MIC [18]: 4 µM (≈ 7.64 µg/mL)
- MIC [19]: 16 µM (≈ 30.6 µg/mL)
- MIC [20]: 16 µM (≈ 30.6 µg/mL)
- MIC [21]: 4 µM (≈ 7.64 µg/mL)
- MIC [22]: 4 µM (≈ 7.64 µg/mL)
- MIC [23]: 22.6 µM (≈ 43.2 µg/mL)
- MIC [24]: ≥ 32 µM
- MIC [25]: 2 µM (≈ 3.82 µg/mL)
- MIC [26]: 4 µM (≈ 7.64 µg/mL)
Structure (SMILES): CC[C@H](C)[C@H](NC(=O)[C@H](CCCCN)NC(=O)[C@H](CCCCN)NC(=O)[C@H](C)NC(=O)[C@H](CC(C)C)NC(=O)[C@H](CCCCN)NC(=O)[C@H](CCCCN)NC(=O)[C@H](CC(C)C)NC(=O)[C@H](CCCN=C(N)N)NC(=O)[C@H](CCCCN)NC(=O)[C@H](C)N)C(=O)N[C@@H](Cc1c[nH]c2ccccc12)C(=O)N[C@@H](CC(N)=O)C(=O)N[C@@H](Cc1c[nH]c2ccccc12)C(=O)N[C@@H](CCCCN)C(N)=O [AKRLKKLAKKIWNWK]

- MIC [27]: ≥ 50 µM
- MIC [28]: ≥ 50 µM
- MIC (Escherichia coli 170): ≥ 50 µM
- MIC [29]: ≥ 50 µM
- MIC [23]: 25 µM (≈ 54.2 µg/mL)
- MIC (Acinetobacter baumannii): ≥ 50 µM
Structure (SMILES): CC[C@H](C)[C@H](N)C(=O)N[C@@H](C)C(=O)N[C@@H](CO)C(=O)N[C@@H](CCCCN)C(=O)N[C@H](C(=O)N[C@@H](C)C(=O)N[C@@H](CC(N)=O)C(=O)N[C@H](C(=O)N[C@H](C(=O)N[C@@H](CCC(N)=O)C(=O)N[C@@H](CCCCN)C(=O)N[C@@H](CC(C)C)C(=O)N[C@@H](CCCCN)C(=O)N[C@@H](CCCN=C(N)N)C(=O)N[C@@H](CCCCN)C(=O)N[C@@H](C)C(=O)N[C@@H](CCCCN)C(=O)N[C@@H](CC(N)=O)C(=O)N[C@@H](C)C(=O)N[C@H](C(=O)O)C(C)C)C(C)C)[C@@H](C)O)C(C)C [IASKVANTVQKLKRKAKNAV]

Further lines, the molecule ahead of its results:

Structure (SMILES): CC[C@H](C)[C@H](NC(=O)[C@@H]1CCCN1C(=O)[C@H](CCCCN)NC(=O)[C@H](CC(C)C)NC(=O)[C@H](C)NC(=O)[C@@H](NC(=O)[C@H](Cc1ccc(O)cc1)NC(=O)[C@H](Cc1ccccc1)NC(=O)[C@@H](NC(=O)[C@@H](NC(=O)[C@H](CCCCN)NC(=O)[C@@H](NC(=O)[C@@H]1CCCN1C(=O)[C@H](CO)NC(=O)[C@H](CCCCN)NC(=O)[C@H](CC(C)C)NC(=O)[C@@H](NC(=O)[C@H](CCCCN)NC(=O)[C@H](CC(C)C)NC(=O)[C@H](Cc1ccccc1)NC(=O)[C@H](CO)NC(=O)[C@H](CCCCN)NC(=O)[C@H](Cc1c[nH]c2ccccc12)NC(=O)[C@@H](N)CCCCN)[C@@H](C)O)C(C)C)[C@@H](C)O)C(C)C)[C@@H](C)O)C(=O)N[C@@H](CO)C(=O)N[C@@H](CO)C(=O)O [KWKSFLKTLKSPVKTVFYTALKPISS]
- MIC [5]: 5.34 µM (≈ 16 µg/mL)
- MIC (Escherichia coli UB1005): 0.667 µM (≈ 2 µg/mL)
- MIC (Escherichia coli KF111): 0.667 µM (≈ 2 µg/mL)
- MIC [6]: 5.34 µM (≈ 16 µg/mL)
- MIC [7]: 5.34 µM (≈ 16 µg/mL)
- MIC [8]: 10.7 µM (≈ 32 µg/mL)
- MIC [9]: 5.34 µM (≈ 16 µg/mL)
- MIC (Escherichia coli KF130): 0.667 µM (≈ 2 µg/mL)

Structure (SMILES): CC[C@H](C)[C@H](NC(=O)[C@@H]1CCCN1C(=O)[C@H](CCCCN)NC(=O)[C@H](CC(C)C)NC(=O)[C@H](C)NC(=O)[C@@H](NC(=O)[C@H](Cc1cnc[nH]1)NC(=O)[C@H](CC(C)C)NC(=O)[C@@H](NC(=O)[C@@H](NC(=O)[C@H](CCCN=C(N)N)NC(=O)[C@H](C)NC(=O)[C@@H]1CCCN1C(=O)[C@H](CO)NC(=O)[C@H](CCCCN)NC(=O)[C@H](Cc1ccccc1)NC(=O)[C@@H](NC(=O)[C@H](CCCCN)NC(=O)[C@H](CC(C)C)NC(=O)[C@H](Cc1ccccc1)NC(=O)[C@H](CO)NC(=O)[C@H](CCCCN)NC(=O)[C@H](Cc1c[nH]c2ccccc12)NC(=O)[C@@H](N)CCCCN)[C@@H](C)O)[C@@H](C)O)C(C)C)[C@@H](C)O)C(=O)N[C@@H](CO)C(=O)N[C@@H](CO)C(=O)O [KWKSFLKTFKSPARTVLHTALKPISS]
- MIC [5]: 10.8 µM (≈ 32 µg/mL)
- MIC (Escherichia coli UB1005): 1.35 µM (≈ 4 µg/mL)
- MIC (Escherichia coli KF111): 1.35 µM (≈ 4 µg/mL)
- MIC [6]: 10.8 µM (≈ 32 µg/mL)
- MIC [7]: 10.8 µM (≈ 32 µg/mL)
- MIC [8]: 21.5 µM (≈ 64 µg/mL)
- MIC [4]: 4 µM (≈ 11.9 µg/mL)
- MIC [9]: 10.8 µM (≈ 32 µg/mL)
- MIC (Escherichia coli KF130): 2.69 µM (≈ 8 µg/mL)

Structure (SMILES): CC(C)C[C@H](NC(=O)[C@H](Cc1c[nH]c2ccccc12)NC(=O)[C@H](CCCCN)NC(=O)[C@H](CC(C)C)NC(=O)[C@H](CC(C)C)NC(=O)[C@H](Cc1c[nH]c2ccccc12)NC(=O)[C@H](CCCCN)NC(=O)[C@H](CC(C)C)NC(=O)[C@@H](N)CC(C)C)C(=O)N[C@@H](CCCCN)C(=O)N[C@@H](CCCCN)C(N)=O [LLKWLLKWLKK]
- MIC [30]: ≥ 100 µM
- MIC [31]: 0.885 µM (≈ 1.3 µg/mL)
- MIC [32]: 27.2 µM (≈ 40 µg/mL)
- MIC [33]: 0.885 µM (≈ 1.3 µg/mL)
- MIC [34]: 13.6 µM (≈ 20 µg/mL)
- MIC [35]: 3.4 µM (≈ 5 µg/mL)
- MIC [36]: 6.81 µM (≈ 9.99 µg/mL)
- MIC [20]: 0.885 µM (≈ 1.3 µg/mL)
- MIC [23]: 6.81 µM (≈ 9.99 µg/mL)
- MIC [4]: 6.81 µM (≈ 9.99 µg/mL)
- MIC [37]: 0.885 µM (≈ 1.3 µg/mL)

Structure (SMILES): CC[C@H](C)[C@H](NC(=O)CN)C(=O)N[C@H](C(=O)N[C@@H](CCCCN)C(=O)N[C@H](C(=O)N[C@H](C(=O)N[C@@H](CCCCN)C(=O)N[C@@H](CO)C(=O)N[C@@H](CC(C)C)C(=O)N[C@H](C(=O)N[C@@H](CCC(=O)O)C(=O)N[C@@H](CCC(N)=O)C(=O)N[C@@H](Cc1ccccc1)C(=O)N[C@H](C(=O)NCC(=O)N[C@@H](CCCCN)C(=O)O)[C@@H](C)O)[C@@H](C)CC)[C@@H](C)CC)C(C)C)[C@@H](C)CC [GIIKVIKSLIEQFTGK]
- MIC [1]: ≥ 42 µM
- MIC [38]: ≥ 64 µM

— DBAASP
